Source: patent publication US20080139558A1, “QUINOLONES USEFUL AS INDUCIBLE NITRIC OXIDE SYNTHASE INHIBITORS” (KALYPSYS, INC., priority 2006, published 2008)

Target: T1, human iNOS (Homo sapiens, UniProt P35228)
T1 construct: expressed in transfected cells; host or cells: HEK293
Experiment: DAN assay of nitric oxide production (hiNOS)
Assay type: cell-based
Details: enzyme expressed in HEK293 cells transiently transfected with human iNOS
In short: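 Human iNOS transiently expressed in HEK293 cells; NO production quantified as nitrite via 2,3-diaminonaphthalene reaction forming fluorescent naphthotriazole.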

T1 sequence (P35228 whole entry): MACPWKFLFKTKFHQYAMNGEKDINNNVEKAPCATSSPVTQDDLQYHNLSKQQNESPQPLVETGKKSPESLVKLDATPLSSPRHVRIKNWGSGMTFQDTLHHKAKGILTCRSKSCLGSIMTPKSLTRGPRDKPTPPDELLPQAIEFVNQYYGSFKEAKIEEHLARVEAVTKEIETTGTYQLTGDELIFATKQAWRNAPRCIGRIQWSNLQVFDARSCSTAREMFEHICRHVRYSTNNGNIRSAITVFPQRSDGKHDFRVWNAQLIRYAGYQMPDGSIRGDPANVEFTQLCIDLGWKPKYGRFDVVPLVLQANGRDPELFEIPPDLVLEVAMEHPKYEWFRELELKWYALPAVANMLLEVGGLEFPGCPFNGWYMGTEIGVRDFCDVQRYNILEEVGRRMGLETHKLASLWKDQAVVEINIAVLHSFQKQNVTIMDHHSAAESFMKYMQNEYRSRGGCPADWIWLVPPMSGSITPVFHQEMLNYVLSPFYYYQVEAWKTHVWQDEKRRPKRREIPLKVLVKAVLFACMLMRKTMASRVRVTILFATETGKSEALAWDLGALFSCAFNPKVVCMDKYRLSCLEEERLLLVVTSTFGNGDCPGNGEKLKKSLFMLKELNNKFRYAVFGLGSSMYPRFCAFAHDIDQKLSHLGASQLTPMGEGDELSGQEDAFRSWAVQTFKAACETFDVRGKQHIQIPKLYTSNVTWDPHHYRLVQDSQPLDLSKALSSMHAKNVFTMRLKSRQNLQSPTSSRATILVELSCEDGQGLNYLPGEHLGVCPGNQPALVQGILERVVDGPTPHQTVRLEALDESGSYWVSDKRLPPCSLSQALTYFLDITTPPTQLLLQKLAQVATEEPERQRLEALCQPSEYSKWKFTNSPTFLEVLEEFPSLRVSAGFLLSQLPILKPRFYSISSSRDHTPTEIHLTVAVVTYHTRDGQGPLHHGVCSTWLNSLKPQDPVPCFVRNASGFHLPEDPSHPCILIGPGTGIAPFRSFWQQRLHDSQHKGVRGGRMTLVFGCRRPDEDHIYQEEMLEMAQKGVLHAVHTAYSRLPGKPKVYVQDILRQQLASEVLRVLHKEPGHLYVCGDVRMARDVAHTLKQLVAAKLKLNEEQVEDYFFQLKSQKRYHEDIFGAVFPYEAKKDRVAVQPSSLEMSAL

EC50 | Structure (SMILES)
≤ 5 µM | Cc1ncsc1-c1nc2ccccc2n1Cc1cc(=O)[nH]c2c(F)c(F)ccc12 [Example 119, 7,8-Difluoro-4-((2-(4-methylthiazol-5-yl)-1H-benzo[d]imidazol-1-yl)methyl)quinolin-2(1H)-one]
> 5 µM | O=C(c1ccco1)N(Cc1cc(=O)[nH]c2ccccc12)c1cccc(Cl)c1 [Example 14, N-(3-Chlorophenyl)-N-[(2-oxo-1,2-dihydroquinolin-4-yl)methyl]-2-furamide]
≤ 5 µM | CC=C(C)c1nc2ccccc2n1Cc1cc(=O)[nH]c2c(F)c(F)ccc12 (single isomer, unassigned) [Example 210, (E or Z)-4-((2-(But-2-en-2-yl)-1H-benzo[d]imidazol-1-yl)methyl)-7,8-difluoroquinolin-2(1H)-one]
> 5 µM | CC(C)(C)Cc1nc2ccccc2n1Cc1cc(=O)[nH]c2c(F)c(F)ccc12 [Example 237, 7,8-Difluoro-4-((2-neopentyl-1H-benzo[d]imidazol-1-yl)methyl)quinolin-2(1H)-one]
> 5 µM | Cc1ncsc1C(=O)N(Cc1cc(=O)[nH]c2ccccc12)c1ccccc1 [Example 29, 4-Methyl-N-((2-oxo-1,2-dihydroquinolin-4-yl)methyl)-N-phenylthiazole-5-carboxamide]
> 5 µM | O=C(c1cccnc1)N(Cc1cc(=O)[nH]c2c(F)cccc12)c1cccc(Cl)c1 [Example 68, N-(3-Chlorophenyl)-N-((8-fluoro-2-oxo-1,2-dihydroquinolin-4-yl)methyl)nicotinamide]
> 5 µM | O=C(c1cncs1)N(Cc1cc(=O)[nH]c2ccccc12)c1ccccc1 [Example 27, N-((2-Oxo-1,2-dihydroquinolin-4-yl)methyl)-N-phenylthiazole-5-carboxamide]
> 5 µM | Cc1ncsc1C(=O)N(Cc1cc(=O)[nH]c2ccccc12)c1cccc(C(F)(F)F)c1 [Example 40, 4-Methyl-N-((2-oxo-1,2-dihydroquinolin-4-yl)methyl)-N-(3-(trifluoromethyl)phenyl)thiazole-5-carboxamide]
> 5 µM | CC(C)c1nc2ccn(Cc3cc(=O)[nH]c4c(F)c(F)ccc34)cc-2n1 [Example 230, 7,8-Difluoro-4-((2-isopropyl-5H-imidazo[4,5-c]pyridin-5-yl)methyl)quinolin-2(1H)-one]
> 5 µM | O=c1cc(Cn2c(-c3cscn3)nc3ccccc32)c2ccc(F)c(F)c2[nH]1 [Example 193, 7,8-Difluoro-4-((2-(thiazol-4-yl)-1H-benzo[d]imidazol-1-yl)methyl)quinolin-2(1H)-one]
> 5 µM | O=C(c1cccc(F)c1)N(Cc1cc(=O)[nH]c2c(F)cccc12)c1cccc(Cl)c1 [Example 55, N-(3-Chlorophenyl)-3-fluoro-N-((8-fluoro-2-oxo-1,2-dihydroquinolin-4-yl)methyl)benzamide]
> 5 µM | Cc1cccc(C)c1-c1nc2ccccc2n1Cc1cc(=O)[nH]c2c(F)c(F)ccc12 [Example 246, 4-((2-(2,6-Dimethylphenyl)-1H-benzo[d]imidazol-1-yl)methyl)-7,8-difluoroquinolin-2(1H)-one]
≤ 5 µM | CCc1nc2ccccc2n1Cc1cc(=O)[nH]c2c(F)c(F)ccc12 [Example 221, 7,8-Difluoro-4-((2-ethyl-1H-benzo[d]imidazol-1-yl)methyl)quinolin-2(1H)-one]
> 5 µM | O=C(c1cccc2ccccc12)N(Cc1cc(=O)[nH]c2c(F)cccc12)c1cccc(Cl)c1 [Example 82, N-(3-Chlorophenyl)-N-((8-fluoro-2-oxo-1,2-dihydroquinolin-4-yl)methyl)-1-naphthamide]
> 5 µM | Cc1ccncc1-c1nc2ccccc2n1Cc1cc(=O)[nH]c2c(F)c(F)ccc12 [Example 121, 7,8-Difluoro-4-((2-(4-methylpyridin-3-yl)-1H-benzo[d]imidazol-1-yl)methyl)quinolin-2(1H)-one]
≤ 5 µM | CCC(CC)c1nc2ccccc2n1Cc1cc(=O)[nH]c2c(F)c(F)ccc12 [Example 217, 7,8-Difluoro-4-((2-(pentan-3-yl)-1H-benzo[d]imidazol-1-yl)methyl)quinolin-2(1H)-one]
> 5 µM | Cc1ncsc1CN(C(=O)c1cc(=O)[nH]c2c(F)cccc12)c1ccc(F)c(Cl)c1 [Example 104, N-(3-Chloro-4-fluorophenyl)-8-fluoro-N-((4-methylthiazol-5-yl)methyl)-2-oxo-1,2-dihydroquinoline-4-carboxamide]
> 5 µM | O=C(c1ccc2ccccc2c1)N(Cc1cc(=O)[nH]c2c(F)cccc12)c1cccc(Cl)c1 [Example 83, N-(3-Chlorophenyl)-N-((8-fluoro-2-oxo-1,2-dihydroquinolin-4-yl)methyl)-2-naphthamide]
≤ 5 µM | Cc1cccc(N(Cc2cc(=O)[nH]c3c(F)cccc23)C(=O)c2scnc2C)c1 [Example 93, N-(3-Methylphenyl)-N-((8-fluoro-2-oxo-1,2-dihydroquinolin-4-yl)methyl)-4-methylthiazole-5-carboxamide]
> 5 µM | Cc1ncsc1C(=O)N(Cc1cc2cccc(F)c2[nH]c1=O)c1cccc(Cl)c1 [Example 171, N-(3-Chlorophenyl)-N-((8-fluoro-2-oxy-1,2-dihydroquinolin-3-yl)methyl)-4-methylthiazole-5-carboxamide]

EC50 | Structure (SMILES)
> 5 µM | CC(C)c1ncc(-c2ccccc2)n1Cc1cc(=O)[nH]c2c(F)c(F)ccc12 [Example 255, 7,8-Difluoro-4-((2-isopropyl-5-phenyl-1H-imidazol-1-yl)methyl)quinolin-2(1H)-one]
> 5 µM | Cn1ccnc1C(=O)N(Cc1cc(=O)[nH]c2c(F)cccc12)c1cccc(Cl)c1 [Example 47, N-(3-Chlorophenyl)-N-((8-fluoro-2-oxo-1,2-dihydroquinolin-4-yl)methyl)-1-methyl-1H-imidazole-2-carboxamide]
≤ 5 µM | Cc1ncsc1C(=O)N(Cc1cc(=O)[nH]c2c(F)c(F)ccc12)c1cccc(Cl)c1 [Example 53, N-(3-Chlorophenyl)-N-((7,8-difluoro-2-oxo-1,2-dihydroquinolin-4-yl)methyl)-4-methylthiazole-5-carboxamide]
≤ 5 µM | Cc1nc(N(C)C)sc1C(=O)N(Cc1cc(=O)[nH]c2c(F)cccc12)c1ccc(F)c(Cl)c1 [Example 98, N-(3-Chloro-4-fluorophenyl)-2-(dimethylamino)-N-((8-fluoro-2-oxo-1,2-dihydroquinolin-4-yl)methyl)-4-methylthiazole-5-carboxamide]
≤ 5 µM | Cc1nc(N(C)C)sc1C(=O)N(Cc1cc(=O)[nH]c2ccccc12)c1ccccc1 [Example 100, 2-(Dimethylamino)-4-methyl-N-((2-oxo-1,2-dihydroquinolin-4-yl)methyl)-N-phenylthiazole-5-carboxamide]
> 5 µM | Cc1ncsc1C(=O)N(Cc1cc(=O)[nH]c2c(F)c(F)ccc12)C(C)C [Example 185]
≤ 5 µM | Cc1ncccc1C(=O)N(Cc1cc(=O)[nH]c2ccccc12)c1ccccc1 [Example 37, 2-Methyl-N-((2-oxo-1,2-dihydroquinolin-4-yl)methyl)-N-phenylnicotinamide]
≤ 5 µM | Cc1ncsc1C(=O)N(Cc1cc(=O)[nH]c2c(F)cccc12)c1cccc(C#N)c1 [Example 95, N-(3-Cyanophenyl)-N-((8-fluoro-2-oxo-1,2-dihydroquinolin-4-yl)methyl)-4-methylthiazole-5-carboxamide]
≤ 5 µM | Cc1nc(C)c(S(=O)(=O)N(Cc2cc(=O)[nH]c3c(F)c(F)ccc23)c2cccc(Cl)c2)s1 [Example 189, N-(3-Chlorophenyl)-N-((7,8-difluoro-2-oxo-1,2-dihydroquinolin-4-yl)methyl)-2,4-dimethylthiazole-5-sulfonamide]
> 5 µM | CC(C)C(=O)N(Cc1cc(=O)[nH]c2ccccc12)c1ccccc1 [Example 5, N-((2-Oxo-1,2-dihydroquinolin-4-yl)methyl)-N-phenylisobutyramide]
≤ 5 µM | O=c1cc(CN(CCCc2ccco2)c2ccccc2)c2ccccc2[nH]1 [Example 24, 4-(((3-(Furan-2-yl)propyl)(phenyl)amino)rmethyl)quinolin-2(1H)-one]
> 5 µM | Cc1ncsc1C(=O)N(Cc1cc(=O)[nH]c2c(F)cccc12)C1CC1 [Example 87, N-Cyclopropyl-N-((8-fluoro-2-oxo-1,2-dihydroquinolin-4-yl)methyl)-4-methylthiazole-5-carboxamide]
≤ 5 µM | O=c1cc(CN(CCc2ccco2)c2ccccc2)c2ccccc2[nH]1 [Example 23, 4-(((2-(Furan-2-yl)ethyl)(phenyl)amino)methyl)quinolin-2(1H)-one]
> 5 µM | Cc1ncsc1C(=O)N(Cc1cc(=O)[nH]c2ccccc12)c1ccc(F)c(F)c1 [Example 41]
> 5 µM | Cc1ccccc1C(=O)N(Cc1cc(=O)[nH]c2c(F)cccc12)c1cccc(Cl)c1 [Example 57, N-(3-Chlorophenyl)-N-((8-fluoro-2-oxo-1,2-dihydroquinolin-4-yl)methyl)-2-methylbenzamide]
> 5 µM | O=C(c1cccs1)N(Cc1cc(=O)[nH]c2ccccc12)c1ccccc1 [Example 7, N-[(2-Oxo-1,2-dihydroquinolin-4-yl)methyl]-N-phenylthiophene-2-carboxamide]
> 5 µM | Cc1ncsc1C(=O)N(Cc1cc(=O)[nH]c2c(F)c(F)ccc12)c1ccc(N2CCCCC2)cc1 [Example 170, N-((7,8-Difluoro-2-oxo-1,2-dihydroquinolin-4-yl)methyl)-4-methyl-N-(4-(piperidin-1-yl)phenyl)thiazole-5-carboxamide]
≤ 5 µM | Cc1ncsc1C(=O)N(Cc1cc(=O)[nH]c2c(F)c(F)ccc12)c1cccc(Cl)c1F [Example 96, N-(3-Chloro-2-fluorophenyl)-N-((7,8-fluoro-2-oxo-1,2-dihydroquinolin-4-yl)methyl)-4-methylthiazole-5-carboxamide]
≤ 5 µM | O=c1cc(Cn2c(C3CCCO3)nc3ccccc32)c2ccc(F)c(F)c2[nH]1 (racemic) [Example 250, 7,8-Difluoro-4-((2-(tetrahydrofuran-2-yl)-1H-benzo[d]imidazol-1-yl)methyl)quinolin-2(1H)-one]
